Reference: US20250129070A1, “BIFUNCTIONAL ANDROGEN RECEPTOR COMPOUNDS” (priority 2023, published 2025)

Columns and labels:
[1] = test system: VCaP cells; assay: VCaP growth inhibition assay; format: cell-based; settings: 30 pM R1881, 9 days, CTG
Procedure, shortened: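 Growth read by CTG luminescence after 9-day exposure to compound (final 100 nM–10 fM, 1:5 steps) plus 30 pM R1881, in phenol red-free DMEM with 5% CSS. Cells pre-incubated 72 h before dosing; IC50 by nonlinear 4-parameter regression.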

[2] = test system: AR / CBP ternary complex; assay: Ternary complex formation assay (sandwich ELISA, AR capture / CBP detection) in VCaP cell lysates; format: cell-based; settings: 1.5 hours treatment, sandwich ELISA (AR capture, CBP or p300 detection)
Procedure, shortened: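 Anti-AR (AR 441)-coated plates capture AR from lysates of VCaP cells grown ≥3 days at 50K/well in 5% charcoal-stripped FBS, dosed with bifunctional for 1.5 h and lysed 30 min at 4 °C. Co-captured CBP/p300 is probed with rabbit mAb and HRP anti-rabbit, then QuantaRed fluorescence (570/585) is read at 0, 5 and 15 min.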

IC50 [1] | EC50 [2] | SMILES
0.1 to 1 nM | < 1 nM | COC1CN(c2ncc(C(=O)NC3C(C)(C)C(Oc4ccc(C#N)c(Cl)c4)C3(C)C)cn2)CCC1CN1CCC(n2nc(N3CCCc4cc(-c5cnn(C)c5)c(C(F)F)cc43)c3c2CCN(C(C)=O)C3)CC1 (stereo not shown) [Compound 331, 2-[4-[[4-[5-acetyl-3-[7-(difluoromethyl)-6-(1-methylpyrazol-4-yl)-3,4-dihydro-2H-quinolin-1-yl]-6,7-dihydro-4H-pyrazolo[4,3-c]pyridin-1-yl]-1-piperidyl]methyl]-3-methoxy-1-piperidyl]-N-[3-(3-chloro-4-cyano-phenoxy)-2,2,4,4-tetramethyl-cyclobutyl]pyrimidine-5-carboxamide]
0.1 to 1 nM | < 1 nM | CC(=O)N1CCc2c(c(Nc3ccc(-c4cnn(C)c4)cc3F)nn2C2CCN(CCN3CCN(c4ncc(C(=O)NC5C(C)(C)C(Oc6ccc(C#N)c(Cl)c6)C5(C)C)cn4)CC3)CC2)C1 (stereo not shown) [Compound 167, 2-[4-[2-[4-[5-acetyl-3-[2-fluoro-4-(1-methylpyrazol-4-yl)anilino]-6,7-dihydro-4H-pyrazolo[4,3-c]pyridin-1-yl]-1-piperidyl]ethyl]piperazin-1-yl]-N-[3-(3-chloro-4-cyano-phenoxy)-2,2,4,4-tetramethyl-cyclobutyl]pyrimidine-5-carboxamide]
1 to 100 nM | 1 to 10 nM | CC(=O)N1CCc2c(c(N3CCCc4cc(-c5cnn(C)c5)c(C(F)F)cc43)nn2C2CCN(C3CCN(c4ncc(C(=O)NC5C(C)(C)C(Oc6ccc(C#N)c(Cl)c6)C5(C)C)cn4)CC3)C2)C1 (stereo not shown) [Compound 12, 2-[4-[3-[5-acetyl-3-[7-(difluoromethyl)-6-(1-methylpyrazol-4-yl)-3,4-dihydro-2H-quinolin-1-yl]-6,7-dihydro-4H-pyrazolo[4,3-c]pyridin-1-yl]pyrrolidin-1-yl]-1-piperidyl]-N-[3-(3-chloro-4-cyano-phenoxy)-2,2,4,4-tetramethyl-cyclobutyl]pyrimidine-5-carboxamide]
0.1 to 1 nM | < 1 nM | COc1cc(OC2C(C)(C)C(NC(=O)c3ccc(N4CCC(CCc5ccc(-c6cc7c(cc6C(F)F)N(c6nn(C8CCOCC8)c8c6CN(C(C)=O)CC8)CCC7)cc5)CC4)cc3)C2(C)C)ccc1C#N (stereo not shown) [Compound 248, 4-[4-[2-[4-[1-(5-acetyl-1-tetrahydropyran-4-yl-6,7-dihydro-4H-pyrazolo[4,3-c]pyridin-3-yl)-7-(difluoromethyl)-3,4-dihydro-2H-quinolin-6-yl]phenyl]ethyl]-1-piperidyl]-N-[3-(4-cyano-3-methoxy-phenoxy)-2,2,4,4-tetramethyl-cyclobutyl]benzamide]
0.1 to 1 nM | < 1 nM | COc1cc(OC2C(C)(C)C(NC(=O)c3ccc(N4CCC(CN5CCC(n6nc(N7CCCc8cc(-c9cnn(C)c9)c(C(F)F)cc87)c7c6CCN(C(C)=O)C7)CC5)(OC)CC4)cc3)C2(C)C)ccc1C#N (stereo not shown) [Compound 264, 4-[4-[[4-[5-acetyl-3-[7-(difluoromethyl)-6-(1-methylpyrazol-4-yl)-3,4-dihydro-2H-quinolin-1-yl]-6,7-dihydro-4H-pyrazolo[4,3-c]pyridin-1-yl]-1-piperidyl]methyl]-4-methoxy-1-piperidyl]-N-[3-(4-cyano-3-methoxy-phenoxy)-2,2,4,4-tetramethyl-cyclobutyl]benzamide]
0.1 to 1 nM | < 1 nM | COc1cc(OC2C(C)(C)C(NC(=O)c3ccc(N4CC5(CCC(N6CCC(n7nc(N8CCCc9cc(-c%10cnn(C)c%10)c(C)cc98)c8c7CCN(C(C)=O)C8)CC6)CC5)C4)cc3)C2(C)C)ccc1C#N (stereo not shown) [Compound 449, 4-[7-[4-[5-acetyl-3-[7-methyl-6-(1-methylpyrazol-4-yl)-3,4-dihydro-2H-quinolin-1-yl]-6,7-dihydro-4H-pyrazolo[4,3-c]pyridin-1-yl]-1-piperidyl]-2-azaspiro[3.5]nonan-2-yl]-N-[3-(4-cyano-3-methoxy-phenoxy)-2,2,4,4-tetramethyl-cyclobutyl]benzamide]
≤ 0.1 nM | < 1 nM | COc1cc(OC2C(C)(C)C(NC(=O)c3ccc(N4CCC(CN5CCC(n6nc(N7CCCc8cc(-c9cnn(C)c9)c(C(F)F)cc87)c7c6CCN(C(C)=O)C7)CC5)CC4)cc3)C2(C)C)ccc1C#N (stereo not shown) [Compound 185, 4-[4-[[4-[5-acetyl-3-[7-(difluoromethyl)-6-(1-methylpyrazol-4-yl)-3,4-dihydro-2H-quinolin-1-yl]-6,7-dihydro-4H-pyrazolo[4,3-c]pyridin-1-yl]-1-piperidyl]methyl]-1-piperidyl]-N-[3-(4-cyano-3-methoxy-phenoxy)-2,2,4,4-tetramethyl-cyclobutyl]benzamide]
≤ 0.1 nM | < 1 nM | COc1cc(OC2C(C)(C)C(NC(=O)c3ccc(N4CCN(CC5CCC(n6nc(N7CCCc8cc(-c9cnn(C)c9)c(C(F)F)cc87)c7c6CCN(C(C)=O)C7)CC5)CC4)cc3)C2(C)C)ccc1C#N (stereo not shown) [Compound 319, 4-[4-[[4-[5-acetyl-3-[7-(difluoromethyl)-6-(1-methylpyrazol-4-yl)-3,4-dihydro-2H-quinolin-1-yl]-6,7-dihydro-4H-pyrazolo[4,3-c]pyridin-1-yl]cyclohexyl]methyl]piperazin-1-yl]-N-[3-(4-cyano-3-methoxy-phenoxy)-2,2,4,4-tetramethyl-cyclobutyl]benzamide]
0.1 to 1 nM | < 1 nM | COc1cc(OC2C(C)(C)C(NC(=O)c3ccc(N4CC5(CCC(N6CCC(n7nc(N8CCCc9cc(C#N)c(C)cc98)c8c7CCN(C(C)=O)C8)CC6)CC5)C4)cc3)C2(C)C)ccc1C#N (stereo not shown) [Compound 455, 4-[7-[4-[5-acetyl-3-(6-cyano-7-methyl-3,4-dihydro-2H-quinolin-1-yl)-6,7-dihydro-4H-pyrazolo[4,3-c]pyridin-1-yl]-1-piperidyl]-2-azaspiro[3.5]nonan-2-yl]-N-[3-(4-cyano-3-methoxy-phenoxy)-2,2,4,4-tetramethyl-cyclobutyl]benzamide]
≤ 0.1 nM | < 1 nM | CC(=O)N1CCc2c(c(-c3cccc4cc(-c5cnn(CCC6CC7(C6)CN(c6ncc(C(=O)NC8C(C)(C)C(Oc9ccc(C#N)c(Cl)c9)C8(C)C)cn6)C7)c5)ncc34)nn2C)C1 (stereo not shown) [Compound 226, 2-[6-[2-[4-[8-(5-acetyl-1-methyl-6,7-dihydro-4H-pyrazolo[4,3-c]pyridin-3-yl)-3-isoquinolyl]pyrazol-1-yl]ethyl]-2-azaspiro[3.3]heptan-2-yl]-N-[3-(3-chloro-4-cyano-phenoxy)-2,2,4,4-tetramethyl-cyclobutyl]pyrimidine-5-carboxamide]

SMILES | IC50 [1] | EC50 [2]
COc1cc(OC2C(C)(C)C(NC(=O)c3ccc(N4CCC(C(=O)N5CCC(n6nc(-c7cccc8cc(C9CC9)c(C(F)F)cc78)c7c6CCN(C(C)=O)C7)CC5)CC4)cc3)C2(C)C)ccc1C#N (stereo not shown) [Compound 257, 4-[4-[4-[5-acetyl-3-[6-cyclopropyl-7-(difluoromethyl)-1-naphthyl]-6,7-dihydro-4H-pyrazolo[4,3-c]pyridin-1-yl]piperidine-1-carbonyl]-1-piperidyl]-N-[3-(4-cyano-3-methoxy-phenoxy)-2,2,4,4-tetramethyl-cyclobutyl]benzamide] | 0.1 to 1 nM | < 1 nM
